Results reported in ChEMBL document CHEMBL1201862, “PubChem BioAssay data set” (2004).
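Cultured in 96-well plates, cells were exposed to test compound for 48 hours across five concentrations. At the GI50, growth is halved.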 Activity calls are given as the source filed them. Rule as the data show it: active = GI50 up to about 1.1 µM and inactive = higher.

Key:
Experiment in all cases: inhibition of tumour cell growth, NCI panel, 48 h
[1] = test system: RXF 393
[2] = test system: U-251
[3] = test system: NCI-H23
[4] = test system: Hs-578T
[5] = test system: MDA-MB-435
[6] = test system: NCI-H522
[7] = test system: Malme-3M
[8] = test system: TK-10
[9] = test system: OVCAR-8
[10] = test system: SK-MEL-28
[11] = test system: 786-0
[12] = test system: NCI-H226
[13] = test system: UACC-62
[14] = test system: SN12C
[15] = test system: PC-3
[16] = test system: K562
[17] = test system: HOP-92
[18] = test system: LOX IMVI
[19] = test system: OVCAR-3
[20] = test system: SK-MEL-2
[21] = test system: COLO 205
[22] = test system: SR
[23] = test system: A498
[24] = test system: SF-295
[25] = test system: SF-268
[26] = test system: SNB-19
[27] = test system: HCT-116
[28] = test system: ACHN
[29] = test system: A549
[30] = test system: MOLT-4
[31] = test system: OVCAR-5
[32] = test system: MCF7
[33] = test system: OVCAR-4
[34] = test system: HCT-15
[35] = test system: T47D
[36] = test system: MDA-MB-231
[37] = test system: HT-29
[38] = test system: KM12
[39] = test system: HCC 2998
[40] = test system: SK-OV-3
[41] = test system: BT-549
[42] = test system: SW-620
[43] = test system: CAKI-1
[44] = test system: NCI/ADR-RES
[45] = test system: UACC-257
[46] = test system: M14
[47] = test system: HOP-62
[48] = test system: CCRF-CEM
[49] = test system: SNB-75
[50] = test system: SK-MEL-5
[51] = test system: UO-31
[52] = test system: EKVX
[53] = test system: SF-539
[54] = test system: IGROV-1
[55] = test system: HL-60
[56] = test system: RPMI-8226
[57] = test system: DU-145
[58] = test system: NCI-H460
[59] = test system: MDA-N

Compound: COc1cccc2c1C(=O)c1c(O)c3c(c(O)c1C2=O)C[C@@](O)(/C(C)=N/NC(=O)c1ccc(Cl)c(Cl)c1)C[C@@H]3OC1CC(N)C(O)C(C)O1 (some centres not stated)
- GI50 [1]: 1150 nM (inactive)
- GI50 [2]: 58.9 nM (active)
- GI50 [3]: 59.2 nM (active)
- GI50 [4]: 528 nM (active)
- GI50 [5]: 270 nM (active)
- GI50 [6]: 223 nM (active)
- GI50 [7]: 23.7 nM (active)
- GI50 [8]: 225 nM (active)
- GI50 [9]: 292 nM (active)
- GI50 [10]: 67.6 nM (active)
- GI50 [11]: 191 nM (active)
- GI50 [12]: 92 nM (active)
- GI50 [13]: 110 nM (active)
- GI50 [14]: 101 nM (active)
- GI50 [15]: 411 nM (active)
- GI50 [16]: 197 nM (active)
- GI50 [17]: 424 nM (active)
- GI50 [18]: 24.9 nM (active)
- GI50 [19]: 226 nM (active)
- GI50 [20]: 718 nM (active)
- GI50 [21]: 176 nM (active)
- GI50 [22]: < 10 nM (active)
- GI50 [23]: 1220 nM (inactive)
- GI50 [24]: 78 nM (active)
- GI50 [25]: 296 nM (active)
- GI50 [26]: 79.2 nM (active)
- GI50 [27]: 39.1 nM (active)
- GI50 [28]: 36.4 nM (active)
- GI50 [29]: 186 nM (active)
- GI50 [30]: < 10 nM (active)
- GI50 [31]: 374 nM (active)
- GI50 [32]: 69.3 nM (active)
- GI50 [33]: 66.8 nM (active)
- GI50 [34]: 219 nM
- GI50 [35]: 372 nM (active)
- GI50 [36]: 711 nM (active)
- GI50 [37]: 71 nM (active)
- GI50 [38]: 205 nM (active)
- GI50 [39]: 146 nM (active)
- GI50 [40]: 440 nM (active)
- GI50 [41]: 505 nM (active)
- GI50 [42]: 92.3 nM (active)
- GI50 [43]: 64.6 nM (active)
- GI50 [44]: 532 nM (active)
- GI50 [45]: 188 nM (active)
- GI50 [46]: 148 nM (active)
- GI50 [47]: 147 nM (active)
- GI50 [48]: 29.9 nM (active)
- GI50 [49]: 44.8 nM (active)
- GI50 [50]: 116 nM (active)
- GI50 [51]: 1080 nM (active)
- GI50 [52]: 904 nM (active)
- GI50 [53]: 183 nM (active)
- GI50 [54]: 462 nM (active)
- GI50 [55]: 34.8 nM (active)
- GI50 [56]: 26.9 nM (active)
- GI50 [57]: 251 nM (active)
- GI50 [58]: 67 nM (active)

Compound: COc1ccc(C2OC(=O)c3c2ccc2ccccc32)c(C)c1 (configuration not stated)
- GI50 [1]: 2690 nM (inactive)
- GI50 [2]: 3430 nM (inactive)
- GI50 [3]: 5410 nM (inactive)
- GI50 [4]: 3440 nM (inactive)
- GI50 [7]: 1000 nM (active)
- GI50 [8]: 2940 nM (inactive)
- GI50 [9]: 4060 nM (inactive)
- GI50 [10]: 2920 nM (inactive)
- GI50 [11]: 3330 nM (inactive)
- GI50 [12]: 5250 nM (inactive)
- GI50 [13]: 7190 nM (inactive)
- GI50 [14]: 1210 nM (inactive)
- GI50 [15]: 3270 nM (inactive)
- GI50 [16]: 697 nM (active)
- GI50 [17]: 8040 nM (inactive)
- GI50 [20]: 1340 nM (inactive)
- GI50 [21]: 1150 nM (inactive)
- GI50 [22]: 2420 nM (inactive)
- GI50 [23]: 1930 nM (inactive)
- GI50 [26]: 4800 nM (inactive)
- GI50 [27]: 3810 nM (inactive)
- GI50 [28]: 5930 nM (inactive)
- GI50 [29]: 3070 nM (inactive)
- GI50 [59]: 499 nM (active)
- GI50 [30]: 2730 nM (inactive)
- GI50 [31]: 13200 nM (inactive)
- GI50 [32]: 3450 nM (inactive)
- GI50 [34]: 1930 nM
- GI50 [36]: 3000 nM (inactive)
- GI50 [37]: 3370 nM (inactive)
- GI50 [38]: 2380 nM (inactive)
- GI50 [39]: 1020 nM (active)
- GI50 [41]: 10500 nM (inactive)
- GI50 [42]: 1140 nM (inactive)
- GI50 [45]: 3780 nM (inactive)
- GI50 [46]: 1320 nM (inactive)
- GI50 [47]: 3480 nM (inactive)
- GI50 [49]: 2930 nM (inactive)
- GI50 [50]: 1770 nM (inactive)
- GI50 [51]: 5400 nM (inactive)
- GI50 [52]: 6070 nM (inactive)
- GI50 [54]: 4790 nM (inactive)
- GI50 [55]: 2330 nM (inactive)
- GI50 [56]: 3180 nM (inactive)
- GI50 [58]: 3300 nM (inactive)

Compound: CCOC(=O)c1c(-c2ccccc2)c(C)cn1C
- GI50 [1]: > 10000 nM (inactive)
- GI50 [2]: > 10000 nM (inactive)
- GI50 [3]: > 10000 nM (inactive)
- GI50 [4]: > 10000 nM (inactive)
- GI50 [5]: > 10000 nM (inactive)
- GI50 [6]: > 10000 nM (inactive)
- GI50 [8]: > 10000 nM (inactive)
- GI50 [9]: > 10000 nM (inactive)
- GI50 [11]: > 10000 nM (inactive)
- GI50 [12]: > 10000 nM (inactive)
- GI50 [13]: > 10000 nM (inactive)
- GI50 [14]: 3730 nM (inactive)
- GI50 [16]: > 10000 nM (inactive)
- GI50 [17]: > 10000 nM (inactive)
- GI50 [19]: > 10000 nM (inactive)
- GI50 [20]: > 10000 nM (inactive)
- GI50 [22]: > 10000 nM (inactive)
- GI50 [24]: > 10000 nM (inactive)
- GI50 [25]: > 10000 nM (inactive)
- GI50 [26]: > 10000 nM (inactive)
- GI50 [27]: > 10000 nM (inactive)
- GI50 [28]: > 10000 nM (inactive)
- GI50 [29]: > 10000 nM (inactive)
- GI50 [59]: > 10000 nM (inactive)
- GI50 [30]: > 10000 nM (inactive)
- GI50 [31]: > 10000 nM (inactive)
- GI50 [33]: > 10000 nM (inactive)
- GI50 [34]: > 10000 nM
- GI50 [36]: 12.5 nM (active)
- GI50 [37]: > 10000 nM (inactive)
- GI50 [38]: > 10000 nM (inactive)
- GI50 [40]: > 10000 nM (inactive)
- GI50 [41]: > 10000 nM (inactive)
- GI50 [44]: > 10000 nM (inactive)
- GI50 [45]: > 10000 nM (inactive)
- GI50 [46]: > 10000 nM (inactive)
- GI50 [48]: > 10000 nM (inactive)
- GI50 [49]: > 10000 nM (inactive)
- GI50 [51]: > 10000 nM (inactive)
- GI50 [52]: > 10000 nM (inactive)
- GI50 [53]: > 10000 nM (inactive)
- GI50 [54]: > 10000 nM (inactive)
- GI50 [57]: > 10000 nM (inactive)
- GI50 [58]: > 10000 nM (inactive)
